According to patent publication US10888720B2, “Gentiopicroside free gentiana extract” (DSM IP ASSETS B.V., priority 2015, dated 2021):

Columns and labels:
[1] = test system: Normal human fibroblasts (NHF); assay: Hyaluronan production (Hyaluronan Assay Kit); format: cell-based; details: TGFbeta1 10 ng/ml, positive control
Protocol: Gentiana extract (Gentiana acaulis/Gentiana septemfida, 25/75 m/m) was used. Normal human fibroblasts (NHF) P2+1 were seeded at 5000 cell/well in 96 well cell culture plates (Nunclon) in MEM 10% FCS (Pan Biotech). After three days of growth, Gentiana extract solution was added in medium without FCS and incubated the cells for an additional three days. Secreted hyaluronan in the growth medium was measured using a Hyaluronan Assay Kit (K-1200, Echelon, Salt Lake City, Utah).

DNA = details: K. Mustafayeva et al., J. Nat. Prod. 2010, 73, 99-103; cited from earlier work

Compound	stimulation of hyaluronan production compared to untreated cells [1] [%]	genotoxic effects reported (DNA)
TGFbeta1: TGFbeta1 (10 ng/ml), served as positive control for hyaluronan production	45.6±1.1	–
C=C[C@@H]1C2=CCOC(=O)C2=CO[C@H]1O[C@@H]1O[C@H](CO)[C@@H](O)[C@H](O)[C@H]1O [gentiopicroside]	–	DNA damaging, mutagenic, and clastogenic effects
